According to ChEMBL document CHEMBL4339232, “Exploiting Chemical Toolboxes for the Expedited Generation of Tetracyclic Quinolines as a Novel Class of PXR Agonists” (ACS Med Chem Lett, 2019):

Key:
[1] = biological target: T1, PXR (Nuclear receptor subfamily 1 group I member 2) (Homo sapiens, UniProt O75469); assay: Agonist activity at PXR (unknown origin) at 20 uM by AlphaScreen assay relative to T0901317; conditions: read-out: Activity
T1 sequence (O75469 whole entry): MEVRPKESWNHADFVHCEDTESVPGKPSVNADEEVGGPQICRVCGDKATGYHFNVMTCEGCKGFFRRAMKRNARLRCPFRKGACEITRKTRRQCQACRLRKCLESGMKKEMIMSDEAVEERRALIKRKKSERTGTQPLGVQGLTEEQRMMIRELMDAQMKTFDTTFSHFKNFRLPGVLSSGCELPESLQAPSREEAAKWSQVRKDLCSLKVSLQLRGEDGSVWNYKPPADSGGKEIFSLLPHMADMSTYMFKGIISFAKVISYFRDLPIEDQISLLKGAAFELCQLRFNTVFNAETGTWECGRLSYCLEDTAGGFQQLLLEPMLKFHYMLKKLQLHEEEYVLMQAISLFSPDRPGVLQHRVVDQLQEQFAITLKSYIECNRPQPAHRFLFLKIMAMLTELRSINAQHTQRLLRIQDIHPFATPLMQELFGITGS

[2] = biological target: T1, PXR (Nuclear receptor subfamily 1 group I member 2); assay: Agonist activity at PXR (unknown origin) assessed as maximum receptor activation response at 20 uM by AlphaScreen assay relative to T0901317; conditions: read-out: Efficacy
[3] = biological target: T2, Nuclear receptor subfamily 1 group I member 2 (Homo sapiens, UniProt O75469); assay: Agonist activity at PXR (unknown origin) by AlphaScreen assay
T2 sequence (O75469 whole entry): T1 sequence (O75469 whole entry)

Row | Structure (SMILES) | activity at 20 µM [1] [%] | Emax at 20 µM [2] [%] | EC50 [3] [µM]
1 | c1ccc([C@H]2Nc3c(ccc4c3CCCC4)[C@@H]3OCCC[C@H]23)cc1 (racemic) | < 25 |  | 
2 | CC(C)(C)OC(=O)N1CC[C@@H]2[C@H](c3ccsc3)Nc3c(ccc4c3CCCC4)[C@@H]21 (racemic) |  | 28 | 8.4
3 | c1ccc([C@@H]2Nc3c(ccc4c3CCCC4)[C@@H]3OCC[C@H]23)cc1 (racemic) | 25 to 50 |  | 
4 | c1coc([C@H]2Nc3c(ccc4c3CCCC4)[C@@H]3OCCC[C@H]23)c1 (racemic) | < 25 |  | 
5 | c1coc([C@@H]2Nc3c(ccc4c3CCCC4)[C@@H]3NCCC[C@H]23)c1 (racemic) | < 25 |  | 
6 | CC(C)(C)OC(=O)N1CCC[C@@H]2[C@H](c3ccsc3)Nc3c(ccc4c3CCCC4)[C@@H]21 (racemic) | 50 to 75 |  | 
7 | c1csc([C@H]2Nc3c(ccc4c3CCCC4)[C@@H]3OCC[C@H]23)c1 (racemic) | < 25 |  | 
8 | c1cc([C@H]2Nc3c(ccc4c3CCCC4)[C@@H]3OCC[C@H]23)cs1 (racemic) | 25 to 50 |  | 
9 | c1cc([C@@H]2Nc3c(ccc4c3CCCC4)[C@@H]3NCCC[C@H]23)cs1 (racemic) | < 25 |  | 
10 | c1coc([C@H]2Nc3c(ccc4c3CCCC4)[C@@H]3OCC[C@H]23)c1 (racemic) | < 25 |  | 
11 | c1ccc([C@H]2Nc3c(ccc4c3CCCC4)[C@@H]3OCC[C@H]23)cc1 (racemic) | < 25 |  | 
12 | c1coc([C@@H]2Nc3c(ccc4c3CCCC4)[C@@H]3NCC[C@H]23)c1 (racemic) | < 25 |  | 
13 | c1ccc([C@@H]2Nc3c(ccc4c3CCCC4)[C@@H]3OCCC[C@H]23)cc1 (racemic) | < 25 |  | 
14 | c1ccc([C@@H]2Nc3c(ccc4c3CCCC4)[C@@H]3NCC[C@H]23)cc1 (racemic) | < 25 |  | 
15 | CC(C)(C)OC(=O)N1CCC[C@@H]2[C@@H](c3ccccc3)Nc3c(ccc4c3CCCC4)[C@@H]21 (racemic) | < 25 |  | 
16 | CC(C)(C)OC(=O)N1CC[C@@H]2[C@H](c3ccccc3)Nc3c(ccc4c3CCCC4)[C@@H]21 (racemic) | 50 to 75 |  | 

Row | Structure (SMILES) | activity at 20 µM [1] [%] | Emax at 20 µM [2] [%] | EC50 [3] [µM]
17 | CC(C)(C)OC(=O)N1CC[C@@H]2[C@H]1c1ccc3c(c1N[C@H]2c1ccsc1)CCCC3 | 75 to 100 | 82 to 119 | 1.2 to 1.6
18 | CC(C)(C)OC(=O)N1CCC[C@@H]2[C@H](c3ccco3)Nc3c(ccc4c3CCCC4)[C@@H]21 (racemic) | 25 to 50 |  | 
19 | CC(C)(C)OC(=O)N1CCC[C@@H]2[C@@H](c3ccco3)Nc3c(ccc4c3CCCC4)[C@@H]21 (racemic) | 25 to 50 |  | 
20 | c1cc([C@@H]2Nc3c(ccc4c3CCCC4)[C@@H]3NCC[C@H]23)cs1 (racemic) | < 25 |  | 
21 | CC(C)(C)OC(=O)N1CC[C@@H]2[C@H](c3ccco3)Nc3c(ccc4c3CCCC4)[C@@H]21 (racemic) | 75 to 100 | 53 | 1.5
22 | CC(C)(C)OC(=O)N1CCC[C@@H]2[C@@H](c3ccsc3)Nc3c(ccc4c3CCCC4)[C@@H]21 (racemic) | < 25 |  | 
23 | CC(C)(C)OC(=O)N1CC[C@@H]2[C@@H](c3ccco3)Nc3c(ccc4c3CCCC4)[C@@H]21 (racemic) | 25 to 50 |  | 
24 | c1coc([C@@H]2Nc3c(ccc4c3CCCC4)[C@@H]3OCCC[C@H]23)c1 (racemic) | 50 to 75 |  | 
25 | CC(C)(C)OC(=O)N1CC[C@@H]2[C@@H](c3ccccc3)Nc3c(ccc4c3CCCC4)[C@@H]21 (racemic) | < 25 |  | 
26 | c1cc([C@@H]2Nc3c(ccc4c3CCCC4)[C@@H]3OCC[C@H]23)cs1 (racemic) | 75 to 100 | 42 | 3.5
27 | CC(C)(C)OC(=O)N1CCC[C@@H]2[C@H](c3ccccc3)Nc3c(ccc4c3CCCC4)[C@@H]21 (racemic) | < 25 |  | 
28 | CC(C)(C)OC(=O)N1CC[C@H]2[C@@H](c3ccsc3)Nc3c(ccc4c3CCCC4)[C@H]21 | 50 to 75 | 60 | 3.2
29 | CC(C)(C)OC(=O)N1CC[C@@H]2[C@@H](c3ccsc3)Nc3c(ccc4c3CCCC4)[C@@H]21 (racemic) |  | 15 | 3.7
30 | c1csc([C@@H]2Nc3c(ccc4c3CCCC4)[C@@H]3OCC[C@H]23)c1 (racemic) | 50 to 75 |  | 
31 | c1coc([C@@H]2Nc3c(ccc4c3CCCC4)[C@@H]3OCC[C@H]23)c1 (racemic) | 50 to 75 |  | 
